Measured values from patent US10759797B2, “Pharmaceutically acceptable salt of EGFR inhibitor, crystal form thereof, preparation method therefor and application thereof” (Wuxi Shuangliang Biotechnology Co., Ltd., priority 2017, dated 2020).
Structures can show the parent of a compound that is named as a salt.

Experiments:
Assay type in all cases: physicochemical
[1] = Hygroscopicity study of crystal forms (Chinese Pharmacopoeia 2015, part 4, appendix 9103)
Procedure: Hygroscopicity comparison study was carried out for various pharmaceutically acceptable salts of EGFR inhibitor present in the form of crystal in Examples 1 to 3 and 5 to 6, the amorphous EGFR inhibitor phosphate salt in Example 4, and the EGFR inhibitor present in a free base form. Tests were conducted according to the method in the Pharmacopoeia of the People's Republic of China, 2015 edition, part 4, appendix 9103 (temperature: 25° C.±1° C., relative humidity: 80%±2%), and the results were as shown in Table 6.
With regard to the description of hygroscopic properties and definition of hygroscopic weight gain, refer to the Pharmacopoeia of the People's Republic of China, 2015 edition, part 4, appendix 9103, experimental guideline of drug hygroscopicity, herein descried by way of example as follows.
Deliquescence: absorb enough water to form a liquid.
Very hygroscopic: hygroscopic weight gain […] 15%.
Hygroscopic: hygroscopic weight gain less than 15% but not less than 2%.
Non- or almost non-hygroscopic: hygroscopic weight gain less than 0.2%.

[2] = Solubility study in water (saturated solutions, HPLC linear equation; Pharmacopoeia and BCS classification)
Source text: (§1) Various pharmaceutically acceptable salts of EGFR inhibitor present in form of crystal in Examples 1 to 3 and 5 to 6 were classified with reference to the relevant requirements of the Pharmacopoeia of the People's Republic of China and the Bio-pharmaceutics Classification System (BCS).
(§2) (a) Relevant Requirements of Solubility in the Pharmacopoeia of the People's Republic of China, 2015 Edition, General Notices:
(§3) (b) Relevant Requirements of Solubility in BCS: Do=(Mo/Vo)/Cs;
(§4) wherein Do: dose index; Mo: highest single dose of the drug (with reference to the relevant dose of osimertinib, tentatively set to 80 mg); Vo: the volume of body fluid required for dissolving the drug (about 250 ml); Cs: saturated solubility of the drug;
(§5) if Do≤1, solubility is high; and if Do>1, solubility is low.
(§6) Using an EGFR inhibitor free base as a control, linear regression was carried out by plotting peak area versus concentration, and the corresponding linear equation was obtained in the range of 0.025 to 1.5 mg/ml: A=19775.0411c+2.4256, r=1.0000.
Water was used as solvent. An appropriate amount of the EGFR inhibitor mesylate salt, p-toluenesulfonate salt, phosphate salt, hydrochloride salt and citrate salt prepared in Examples 1 to 3 and 5 to 6 was weighed, and prepared into saturated solutions. Samples were taken after standing for 1 hour, 4 hours, and 24 hours, respectively, and the concentration of each sample in saturation state was calculated according to the linear equation.

[3] = Solubility study in artificial gastric fluid (saturated solutions, HPLC linear equation; Pharmacopoeia and BCS classification)
Source text: as §1, §2, §3, §4, §5, §6
Artificial gastric fluid was used as solvent. An appropriate amount of the EGFR inhibitor mesylate salt (crystal form A), p-toluenesulfonate salt (crystal form B), phosphate salt (crystal form C), phosphate salt (amorphous), hydrochloride salt (crystal form C), and citrate salt (crystal form E) prepared in Examples 1 to 6 was weighed, and prepared into saturated solutions. Samples were taken after standing for 1 hour, 4 hours, and 24 hours, respectively, and the concentration of each sample in saturation state was calculated according to the linear equation.

[4] = One month accelerated stability study at 40° C./75% RH (shape, purity, XRPD)
Procedure: The six pharmaceutically acceptable salts of EGFR inhibitor in Examples 1 to 6 were placed in a condition of 40° C./75% RH, and a one month accelerated stability study was carried out. Samples were taken at the end of 0 and 1 month respectively, and emphasis was placed upon the shape, purity and crystal form stability (XRPD pattern) of the samples.
Stable refers to no occurrence of degradation and no detection of transformation to other crystal forms by analytical means such as chromatography and XRPD.

[5] = Solubility study in water (saturated solutions, HPLC linear equation; Pharmacopoeia and BCS classification); settings: in water and artificial gastric fluid

In the case of `C=CC(=O)Nc1cc(Nc2nccc(-c3cn(C)c4cccnc34)n2)c(OC)cc1N(C)CCN(C)C` [phosphate salt (crystal form C)], the “Hygroscopicity as compared with that of the EGFR inhibitor present in a free base form” value ([1]; 25° C./RH 80%) is reported as “higher hygroscopicity”, the “Weight gain over 6 hours (%)” value ([1]; 25° C.±1° C., relative humidity 80%±2%, 6 hours) is reported as 9.15% and the “Weight gain over 24 hours (%)” value ([1]; 25° C.±1° C., relative humidity 80%±2%, 24 hours) is reported as 11.98%. The Hygroscopicity ([1]; 25° C.±1° C., relative humidity 80%±2%, Pharmacopoeia class) was “hygroscopic”, the “Pharmacopoeia of the People's Republic of China Solubility level” value [2] was “freely soluble” and the “BCS level (Do)” value ([2]; Do=(Mo/Vo)/Cs, Mo 80 mg, Vo about 250 ml, Do≤1 solubility high, Do>1 low) was 0.0023 < 1. The “Solubility in water, 1 h” value ([2]; saturated solution, standing 1 hour) was 107.15 mg/mL, the “Solubility in water, 4 h” value ([2]; saturated solution, standing 4 hours) was 133.32 mg/mL and the “Solubility in water, 24 h” value ([2]; saturated solution, standing 24 hours) was 137.13 mg/mL. For the same molecule, the “Pharmacopoeia of the People's Republic of China Solubility level” value ([3]; artificial gastric fluid) was “freely soluble”, the “Solubility in artificial gastric fluid compared with water” value ([3]; artificial gastric fluid versus water) was “higher solubility in artificial gastric fluid than in water” and the “Solubility in artificial gastric fluid, 1 h” value ([3]; artificial gastric fluid, saturated solution, standing 1 hour) was 156.70 mg/mL. For the same molecule, the “Solubility in artificial gastric fluid, 4 h” value ([3]; artificial gastric fluid, saturated solution, standing 4 hours) was 159.14 mg/mL, the “Solubility in artificial gastric fluid, 24 h” value ([3]; artificial gastric fluid, saturated solution, standing 24 hours) was 147.08 mg/mL and the “BCS level (Do)” value ([3]; artificial gastric fluid, Do=(Mo/Vo)/Cs, Mo 80 mg, Vo about 250 ml, Do≤1 solubility high, Do>1 low) was 0.0022 < 1. For the same molecule, the “Degradation in the solubility study” value ([3]; water and artificial gastric fluid, up to 24 hours) was “no significant degradation”, the “Appearance, 1 month” value ([4]; after 1 month at 40° C./75% RH) was “tan solid” and the “Purity (%), 1 month” value ([4]; after 1 month at 40° C./75% RH) was 98.5%. For the same molecule, the “XRPD pattern (0 month versus 1 month)” value ([4]; after 1 month at 40° C./75% RH) was “consistent”, the “Appearance, 0 month” value ([4]; start of study (0 month)) was “tan solid” and the “Purity (%), 0 month” value ([4]; start of study (0 month)) was 98.5%. The “Solubility with reference to Pharmacopoeia solubility classification” value [5] was “high”.
